Results: US20260083728A1, “COMPOUNDS FOR TREATING INFECTIONS WITH PARASITIC PROTOZOA” (OHIO STATE INNOVATIION FOUNDATION, priority 2022, published 2026)

Legend:
[1] = test system: L. donovani LV82 promastigotes; experiment: Promastigote assay (proliferation); type: cell-based; details: Leishmania donovani, n ≥ 3 independent experiments
Procedure: Promastigote assay. The effect of the compounds on the proliferation of Leishmania donovani LV82 strain parasites (MHOM/ET/67:LV82) was carried out as outlined by Feng et al.^26

[2] = test system: intracellular L. donovani LV82 parasites; experiment: L. donovani-infected macrophage assay (high content imaging); type: cell-based, Leishmania donovani; details: for effect on intracellular parasites: at non-toxic concentrations
Excerpt: (§1) Evaluation in an infected macrophage model. Four of the compounds described above were selected for evaluation in an L. donovani infected macrophage model. […] An image-based assay employing murine peritoneal macrophages as host cells and DAPI as an indicator that was based on assays reported previously in the literature^23-24 was used to evaluate these compounds.
(§2) L. donovani-infected macrophage assay. The efficacy of selected target compounds against intracellular L. donovani LV82 parasites was conducted using murine peritoneal macrophages as the host cell in a high content imaging assay essentially as described by Joice et al.^24 and Abdelhameed et al.^28, with the following modifications. The density of peritoneal macrophages was 5×10^4 host cells/well, with the parasite/macrophage ratio remaining at 5:1. The concentration of 4,6-diamidino-2-phenylindole (DAPI) employed for nuclear staining was 4 μM. […] For the quantification of the infection, macrophage nuclei were selected first by DAPI staining with area larger than 30 μm^2. The cytoplasm was selected consequentially based on the nuclei with the digital phase contrast (DPC) channel. Parasites in the cytoplasm were selected based on relative intensity. Parasites per macrophage in each well were exported to a CSV file to generate dose responses, with data analysis performed as described by Joice et al.^24

J774 macrophages = experiment: J774 macrophage assay; type: cell-based; details: Mus musculus; J774 murine macrophages; n ≥ 3 independent experiments
Procedure: J774 macrophage assay. This assay was performed as reported by Zhu et al.^27

L. donovani CYP5122A1 = L. donovani CYP5122A1 (Leishmania donovani, UniProt Q2XQE3); experiment: Leishmania CYP5122A1 inhibition assay; type: biochemical; details: comparator 18a
Procedure: (§3) Leishmania CYP51 and CYP5122A1 assays. The cloning, expression, purification, and inhibition assays performed with L. donovani CYP51 and CYP5122A1 were conducted as described in Wang et al.^19

[3] = test system: murine peritoneal macrophages; experiment: Host cell toxicity in the infected macrophage assay; type: cell-based; details: for host cell toxicity: 25 μM and below; for toxicity to host cells: 50 μM
Excerpt: as §1, §2

L. donovani CYP51 = L. donovani CYP51 (Leishmania donovani, UniProt A0A3S7WRS7); experiment: Leishmania CYP51 inhibition assay; type: biochemical; details: comparator 18a
Procedure: as §3

[4] = murine peritoneal macrophages as host cells, n=3 determinations

Sequence of L. donovani CYP5122A1 (Q2XQE3 entry or part of it): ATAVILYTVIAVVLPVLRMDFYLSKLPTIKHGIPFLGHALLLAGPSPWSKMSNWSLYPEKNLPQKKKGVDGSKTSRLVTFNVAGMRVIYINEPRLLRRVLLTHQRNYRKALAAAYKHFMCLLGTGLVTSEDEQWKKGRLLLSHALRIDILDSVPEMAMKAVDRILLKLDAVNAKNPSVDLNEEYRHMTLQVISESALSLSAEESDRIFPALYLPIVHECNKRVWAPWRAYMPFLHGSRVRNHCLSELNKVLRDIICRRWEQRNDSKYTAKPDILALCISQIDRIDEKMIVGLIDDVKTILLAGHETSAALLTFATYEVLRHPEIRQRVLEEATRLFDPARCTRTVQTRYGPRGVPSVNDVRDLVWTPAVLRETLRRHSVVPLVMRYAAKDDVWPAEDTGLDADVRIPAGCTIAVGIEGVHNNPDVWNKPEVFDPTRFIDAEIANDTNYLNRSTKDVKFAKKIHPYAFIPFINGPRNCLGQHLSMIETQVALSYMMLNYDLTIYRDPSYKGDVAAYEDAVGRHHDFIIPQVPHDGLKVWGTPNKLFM
Sequence of L. donovani CYP51 (A0A3S7WRS7 entry or part of it): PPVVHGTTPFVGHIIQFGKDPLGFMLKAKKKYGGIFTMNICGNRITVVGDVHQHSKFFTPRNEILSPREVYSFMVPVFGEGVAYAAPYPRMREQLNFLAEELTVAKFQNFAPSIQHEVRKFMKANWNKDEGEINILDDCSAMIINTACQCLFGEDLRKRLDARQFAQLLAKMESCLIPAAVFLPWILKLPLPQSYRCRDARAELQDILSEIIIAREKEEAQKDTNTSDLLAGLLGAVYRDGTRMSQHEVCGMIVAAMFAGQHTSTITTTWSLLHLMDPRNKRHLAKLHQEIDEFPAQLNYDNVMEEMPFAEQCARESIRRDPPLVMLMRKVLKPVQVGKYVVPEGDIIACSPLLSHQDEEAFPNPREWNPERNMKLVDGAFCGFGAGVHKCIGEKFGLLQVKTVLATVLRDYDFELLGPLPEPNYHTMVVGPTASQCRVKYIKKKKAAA

EC50 [1] [µM]	Compound	other results
> 50	Cc1cc(C)cc(NC(=O)N2CCN(Cc3ccncc3)CC2)c1 [Compound 4a, N-(3,5-dimethylphenyl)-4-(pyridin-4-ylmethyl)piperazine-1-carboxamide]	–
> 50	Cc1cc(NC(=O)N2CCN(Cc3ccncc3)CC2)cc(C)c1C [Compound 4f, 4-(pyridin-4-ylmethyl)-N-(3,4,5-trimethylphenyl)piperazine-1-carboxamide]	–
–	CC(C)(C)c1cccc(NC(=O)N2CCN(Cc3ccncc3)CC2)c1 [Compound 4g, N-(3-(tert-butyl)phenyl)-4-(pyridin-4-ylmethyl)piperazine-1-carboxamide]	effect on intracellular parasites [2]: little effect; EC50 (J774 macrophages): > 50 µM
> 50	CC(C)Oc1cccc(NC(=O)N2CCN(Cc3ccncc3)CC2)c1 [Compound 4l, N-(3-isopropoxyphenyl)-4-(pyridin-4-ylmethyl)piperazine-1-carboxamide]	–
> 100	O=C(Nc1cccc(Cl)c1)N1CCN(Cc2ccncc2)CC1 [Compound 4n, N-(3-chlorophenyl)-4-(pyridin-4-ylmethyl)piperazine-1-carboxamide]	–
> 100	O=C(Nc1ccc(Cl)cc1)N1CCN(Cc2ccncc2)CC1 [Compound 4o, N-(4-chlorophenyl)-4-(pyridin-4-ylmethyl)piperazine-1-carboxamide]	–
48	O=C(Nc1cccc(C(F)(F)F)c1)N1CCN(Cc2ccncc2)CC1 [Compound 4t, 4-(Pyridin-4-ylmethyl)-N-(3-(trifluoromethyl)phenyl)piperazine-1-carboxamide]	–
> 50	O=C(Nc1ccc(C(F)(F)F)cc1)N1CCN(Cc2ccncc2)CC1 [Compound 4u, 4-(Pyridin-4-ylmethyl)-N-(4-(trifluoromethyl)phenyl)piperazine-1-carboxamide]	–
~10	O=C(Nc1cc(C(F)(F)F)cc(C(F)(F)F)c1)N1CCN(Cc2ccncc2)CC1 [Compound 4v, N-(3,5-bis(trifluoromethyl)phenyl)-4-(pyridin-4-ylmethyl)piperazine-1-carboxamide]	effect on intracellular parasites [2]: little effect
> 50	O=C(Nc1ccc(OCc2cc(C(F)(F)F)cc(C(F)(F)F)c2)cc1)N1CCN(CCCc2ccccc2)CC1 [Compound 18ab, N-(4-((3,5-bis(trifluoromethyl)benzyl)oxy)phenyl)-4-(3-phenylpropyl)piperazine-1-carboxamide]	–
–	O=C(Nc1ccc(OCc2cc(C(F)(F)F)cc(C(F)(F)F)c2)cc1)N1CCN(CCc2ccncc2)CC1 [Compound 18e, N-(4-((3,5-bis(trifluoromethyl)benzyl)oxy)phenyl)-4-(2-(pyridin-4-yl)ethyl)piperazine-1-carboxamide]	increase in inhibitory potency against CYP5122A1 compared to hit compound 18a (L. donovani CYP5122A1): 3.4 fold; EC50 ([2]; Leishmania donovani, Peritoneal macrophage, murine peritoneal macrophages as host cells, n=3 determinations, read-out: EC50 against intracellular L. donovani): 4 µM; EC50 against intracellular L. donovani [2, 4]: low micromolar range; host cell toxicity [3]: lower; toxicity to host cells [3]: exhibited toxicity to host cells
–	COc1cc(COc2ccc(NC(=O)N3CCN(CCc4ccncc4)CC3)cc2)cc(OC)c1 [Compound 18g, N-(4-((3,5-dimethoxybenzyl)oxy)phenyl)-4-(2-(pyridin-4-yl)ethyl)piperazine-1-carboxamide]	decrease in potency against CYP5122A1 compared to hit compound 18a (L. donovani CYP5122A1): 3.0 fold; decrease in activity against CYP51 compared to hit compound 18a (L. donovani CYP51): 1.8 fold
–	CC(C)(C)c1cc(COc2ccc(NC(=O)N3CCN(CCc4ccncc4)CC3)cc2)cc(C(C)(C)C)c1 [Compound 18i, N-(4-((3,5-di-tert-butylbenzyl)oxy)phenyl)-4-(2-(pyridin-4-yl)ethyl)piperazine-1-carboxamide]	increase in inhibitory potency against CYP5122A1 compared to hit compound 18a (L. donovani CYP5122A1): 2.2 fold; EC50 against intracellular L. donovani [2, 4]: low micromolar range; host cell toxicity [3]: lower; toxicity to host cells [3]: exhibited toxicity to host cells
30	O=C(Nc1ccc(OCc2cc(C(F)(F)F)cc(C(F)(F)F)c2)cc1)N1CCN(CCn2cccn2)CC1 [Compound 18o, 4-(2-(1H-pyrazol-1-yl)ethyl)-N-(4-((3,5-bis(trifluoromethyl)benzyl)oxy)phenyl)piperazine-1-carboxamide]	–
> 50	O=C(Nc1ccc(OCc2cc(C(F)(F)F)cc(C(F)(F)F)c2)cc1)N1CCN(CCn2cncn2)CC1 [Compound 18q, 4-(2-(1H-1,2,4-triazol-1-yl)ethyl)-N-(4-((3,5-bis(trifluoromethyl)benzyl)oxy)phenyl)piperazine-1-carboxamide]	EC50 (J774 macrophages): > 50 µM
> 12.5	O=C(Nc1ccc(OCc2cc(C(F)(F)F)cc(C(F)(F)F)c2)cc1)N1CCN(CCc2ccccc2)CC1 [Compound 18r, N-(4-((3,5-bis(trifluoromethyl)benzyl)oxy)phenyl)-4-phenethylpiperazine-1-carboxamide]	–
–	COc1ccc(CCN2CCN(C(=O)Nc3ccc(OCc4cc(C(F)(F)F)cc(C(F)(F)F)c4)cc3)CC2)cc1 [Compound 18x, N-(4-((3,5-bis(trifluoromethyl)benzyl)oxy)phenyl)-4-(4-methoxyphenethyl)piperazine-1-carboxamide]	EC50 (J774 macrophages): 8.3 µM

Compound	EC50 [1] [µM]	other results
O=C(Nc1ccccc1)N1CCN(Cc2ccncc2)CC1 [Compound 4b, N-phenyl-4-(pyridin-4-ylmethyl)piperazine-1-carboxamide]	> 100	–
Cc1ccccc1NC(=O)N1CCN(Cc2ccncc2)CC1 [Compound 4c, 4-(Pyridin-4-ylmethyl)-N-(o-tolyl)piperazine-1-carboxamide]	> 100	–
Cc1cccc(NC(=O)N2CCN(Cc3ccncc3)CC2)c1 [Compound 4d, 4-(Pyridin-4-ylmethyl)-N-(m-tolyl)piperazine-1-carboxamide]	> 100	–
Cc1ccc(NC(=O)N2CCN(Cc3ccncc3)CC2)cc1 [Compound 4e, 4-(Pyridin-4-ylmethyl)-N-(p-tolyl)piperazine-1-carboxamide]	> 100	–
COc1cccc(NC(=O)N2CCN(Cc3ccncc3)CC2)c1 [Compound 4i, N-(3-methoxyphenyl)-4-(pyridin-4-ylmethyl)piperazine-1-carboxamide]	> 100	–
COc1ccc(NC(=O)N2CCN(Cc3ccncc3)CC2)cc1 [Compound 4j, N-(4-methoxyphenyl)-4-(pyridin-4-ylmethyl)piperazine-1-carboxamide]	> 100	–
COc1cc(NC(=O)N2CCN(Cc3ccncc3)CC2)cc(OC)c1 [Compound 4k, N-(3,5-dimethoxyphenyl)-4-(pyridin-4-ylmethyl)piperazine-1-carboxamide]	> 100	–
O=C(Nc1ccccc1Cl)N1CCN(Cc2ccncc2)CC1 [Compound 4m, N-(2-chlorophenyl)-4-(pyridin-4-ylmethyl)piperazine-1-carboxamide]	> 100	–
O=C(Nc1cccc(F)c1)N1CCN(Cc2ccncc2)CC1 [Compound 4q, N-(3-fluorophenyl)-4-(pyridin-4-ylmethyl)piperazine-1-carboxamide]	> 100	–
O=C(Nc1ccc(F)cc1)N1CCN(Cc2ccncc2)CC1 [Compound 4r, N-(4-fluorophenyl)-4-(pyridin-4-ylmethyl)piperazine-1-carboxamide]	> 100	–
O=C(Nc1cc(F)cc(F)c1)N1CCN(Cc2ccncc2)CC1 [Compound 4s, N-(3,5-difluorophenyl)-4-(pyridin-4-ylmethyl)piperazine-1-carboxamide]	> 100	–
